This data set can be described thus: Human HepG2 cell viability assay in 384 well format. The format is toxicity, cell-based. Also on record: dose 125 nL, time 70.5 hour; concentration not given beside the values. As to conditions: HepG2 cells, read-out: Inhibition.
With `N#Cc1ccc(SCCOCCO)c(F)c1`, the cytotoxicity at 70.5 h is -8.55%.
Consider `Nc1ncc(-c2csc(NC(=O)C[C@H]3COCCN3)n2)cn1`, for which the cytotoxicity at 70.5 h is -6.96%.
Take `c1cnc(N2CCC(NCc3cnc(C4CCC4)s3)CC2)nc1`: the cytotoxicity at 70.5 h was -11.5%.
Under `CN(C)CCN1CC(C(=O)N2CCC(c3cc(=O)[nH]cn3)CC2)CC1=O` (configuration not stated) stands 3.73%.
Under `O=C(O)C1(n2ccc(-c3ccco3)n2)CCN(Cc2cccnc2)CC1` stands -4.45%; under `Cc1cnn(CCC(=O)N2CCN(C(=O)C(C)C)[C@@H]3CS(=O)(=O)C[C@@H]32)c1`, -9.72%.
For `O=C1O[C@@H]2CN(c3ccccn3)C[C@@H]2N1CCCc1ccc(F)cc1` the value was -14.3%; for `CCCn1ncc(C(=O)N(Cc2cccnc2)C[C@@H]2CCC(=O)N2)c1C`, -5.8%; for `Cc1nc2c(c(=O)n1C)CCN(C(=O)CCc1ccccc1O)CC2`, -6.87%.
Turning to `O=C(c1ccccc1F)N(CCCO)S(=O)(=O)c1cccs1`, the cytotoxicity at 70.5 h was -9.23%.
As for `CN(C)S(=O)(=O)N1C[C@@H]2CN(Cc3ccoc3)CCO[C@@H]2C1`, the cytotoxicity at 70.5 h was -4.48%.
For `CS(=O)(=O)N[C@H]1CN(CCOCc2ccccc2)C[C@@H]1C1CC1` the value was -2.16%; for `O=C(Nc1ccccc1Cn1cccn1)N1CCCC(N2CCCC2)C1` (configuration not stated), 16.1%; for `CC(Sc1nnc(C2CC2)n1CC(N)=O)c1ccc(Cl)cc1` (configuration not stated), -8.5%.
For `CCOc1cccc(C(=O)N2CCCn3nc(CCC(=O)O)cc3C2)c1` the value was -5.68%; for `CCN1CCC(CNC(=O)C(c2ccc(F)cc2)N(C)C)(N(C)C)CC1` (configuration not stated), -6.97%; for `COCC(NC(=O)c1cnn(C)c1)c1cccc(C(F)(F)F)c1` (configuration not stated), 2.36%.
In the case of `Cc1nccn1C1CCCN(C(=O)COCC2CC2)C1` (configuration not stated), the cytotoxicity at 70.5 h was -6.29%.
On to `CC(C)CN1CCN(C(=O)c2cc(=O)c3ccccc3[nH]2)CC1`, for which the cytotoxicity at 70.5 h was -2.68%.
Regarding `COc1ccc(CCNC2CCCN(Cc3noc(C)n3)C2)cc1` (configuration not stated), the cytotoxicity at 70.5 h was -14%.
`CS(=O)(=O)Cc1cc(F)ccc1NCc1nnsc1Cl`: the cytotoxicity at 70.5 h was 12.3%.
For `CN(CC(=O)N1CCCC1Cn1cccn1)c1cnccn1` (configuration not stated) the value was -19.4%; for `CCC(=O)N1CCC(Cc2ccccc2-c2ccccc2)(C(N)=O)C1` (configuration not stated), -20.3%.
For `CC(=O)c1cccc(NC(=O)Cn2cc(-c3ccccc3)ncc2=O)c1` the value was -6.47%; for `CCn1cc(S(=O)(=O)N2CCCCCC2c2cc(C)no2)cn1` (configuration not stated), 0.308%; for `COCCN(C)C(=O)c1ccccc1-n1cc(CN(C)C)cn1`, -5.25%.
For `COc1ccc2c(c1)C(=O)NC1(CC2)CCN(Cc2cccnc2)C1` (configuration not stated) the value was -2.38%; for `c1cnn(C[C@@H]2C[C@@H]3CN(CC4CC4)CC[C@@H]3N2c2nccs2)c1`, 0.124%; for `CCn1cnnc1C1CCN(C(=O)c2ccc(Cl)cc2OC)CC1`, -9.75%.
`Cc1cccc(OCCNC(=O)CN2CCN(C)CC2C)c1` (configuration not stated): the cytotoxicity at 70.5 h is 25.2%.
Under `CCn1nc(C)cc1C(=O)N1CCOc2cc(C)ccc21` stands -7.11%.
For `Cc1ccc(S(=O)(=O)N2CC[C@@H]3C[C@H](NC(=O)c4ccncc4)[C@@H]32)cc1` the value was -2.83%; for `CC(C)Oc1ncnc2c1CCN(Cc1cccs1)CC2`, -6.72%.
Under `COC(=O)c1ccc2c(c1)CCCN2S(=O)(=O)c1cn(C)c(C)n1` stands 1.33%.
For `Cc1ccc(CC(=O)NCC(O)c2cccc(C(F)(F)F)c2)cn1` (configuration not stated), the cytotoxicity at 70.5 h is -0.0497%.
Under `COC(C)C(=O)Nc1cc(C(=O)N2CCSCC2)ccc1C` (configuration not stated) stands 0.013%; under `c1ccc(N2CCN(Cc3cnc(C4CCCCO4)nc3)CC2)nc1` (configuration not stated), -4.5%.
`N#Cc1cccc(OCCN2CCCC2C(=O)Nc2nccs2)c1` (configuration not stated): the cytotoxicity at 70.5 h came to 29%.
Under `COCC(NC(=O)NCc1cccc(C#N)c1)c1ccco1` (configuration not stated) stands -2.38%.
Consider `NC(=O)NC1CCN(Cc2ccc3c(c2)CCC3)CC1`, for which the cytotoxicity at 70.5 h is -5.94%.
On to `Cn1c(=O)c2sccc2n(Cc2ccccc2)c1=O`, for which the cytotoxicity at 70.5 h stood at 2.6%.
Take `CC(=O)N1CCCC(C(=O)NCCc2nc(Cc3ccccc3)no2)C1` (configuration not stated): the cytotoxicity at 70.5 h is -13.3%.
In the case of `CN(CCc1ccncc1)C(=O)C1CSCN1C(=O)C1CCCC1` (configuration not stated), the cytotoxicity at 70.5 h is -5.06%.
Turning to `O=C(c1sccc1-n1cnnn1)N1CCC(Cc2ccccc2)CC1`, the cytotoxicity at 70.5 h was -4.62%.
Under `Fc1ccc2[nH]c([C@H]3CCN(C4CCOCC4)C3)nc2c1` stands 4.63%; under `CCCN1CCN(C(=O)c2ccc3nc(C)oc3c2)[C@H]2CS(=O)(=O)C[C@H]21`, -7.59%.
Regarding `Cc1c(C(C)N)cnn1-c1ccccn1` (configuration not stated), the cytotoxicity at 70.5 h was -8.01%.
For the compound `CNC(=O)C1CCN(c2ncnc3c2CCN(C(=O)C2CC2)C3)C1` (configuration not stated), the cytotoxicity at 70.5 h is -5.76%.
For `O=C(NC1CC(=O)N(C2Cc3ccccc3C2)C1)c1csnn1` (configuration not stated), the cytotoxicity at 70.5 h was -1.65%.
`COc1cc(N2C[C@@H]3COC[C@]3(COCc3ccccn3)C2)ncn1`: the cytotoxicity at 70.5 h was -4.79%.
For the compound `O=C(NCc1nnc2n1CCCCC2)N1CCC2(CCCCC2)C1`, the cytotoxicity at 70.5 h is -6.29%.
`CN(C)C(=O)Cc1nc(CN2CCCCC2Cn2cccn2)cs1` (configuration not stated): the cytotoxicity at 70.5 h was 37%.
For `Cc1nc2n(n1)CCN(S(=O)(=O)c1ccc(Cl)cc1)C2` the value was -3.28%; for `Cc1nc(-c2ccccc2)n(CC(=O)N(C(C)C)C(C)C)n1`, 2.39%; for `CC(C)C[C@H](NC(=O)NC1CCS(=O)(=O)C1)C(=O)NCc1cccnc1` (some centres not stated), -16%.
On to `O=C1COC2(CCN(Cc3ccncc3)CC2)CN1c1ccccc1`, for which the cytotoxicity at 70.5 h stood at 2.43%.
For `COc1ccc(-c2nc(C#N)c(N(C)C)o2)cc1OC` the value was -5.52%; for `O=c1c2cccnc2cnn1CC(O)c1ccc(Br)cc1` (configuration not stated), 12%.
Under `CCc1ccccc1CN1CC[C@@]2(O)CCN(S(=O)(=O)N(C)C)C[C@H]2C1` stands -3.87%.
Under `CCn1ncc2c1CN(CCc1cccc(Cl)c1)CC2COC` (configuration not stated) stands -8.31%.
Consider `CC(C)N1CCC(C(=O)N2CCN(c3cccc(C(=O)O)c3)CC2)CC1`, for which the cytotoxicity at 70.5 h is -9.74%.
Under `COc1ccc(-c2nc(CN3CCCC(OC)C3)c(C)o2)c(F)c1` (configuration not stated) stands 10.8%; under `COCCCN(C)Cc1nc2c(cnn2C)c(=O)[nH]1`, 42.4%.
In the case of `CNC(=O)N1CCC(NC(=O)c2cnn(C)c2)CC1`, the cytotoxicity at 70.5 h was -11.2%.
Under `CCO[C@@H]1CCN(C(=O)c2ccc[nH]2)[C@@H]1Cc1cnn(C)c1` stands -2.67%; under `CCN1C(=O)[C@]2(CC[C@@H]3CN(S(=O)(=O)CC(C)C)C[C@@H]32)N=C1C`, -12.6%; under `CCN(C(=O)CCn1cccn1)C1CC1`, -5.79%.
Take `O=C(c1csc(C2CC2)n1)N1CCCCC1Cn1cccn1` (configuration not stated): the cytotoxicity at 70.5 h amounted to 21.8%.
Under `COc1ncccc1CNC(=O)N1CCCC1c1ccsc1` (configuration not stated) stands -0.312%; under `O=C(OCc1ccccc1)c1cccc(NC(=O)C2COCCO2)c1` (configuration not stated), 1.04%.
Under `CNc1oc(-c2ccc(OC)c(S(=O)(=O)N3CCCC3)c2)nc1C#N` stands -21.8%; under `CCn1cnnc1CNC(=O)N1CCC(C(=O)NC)CC1`, 1.9%.
In the case of `Cc1ccc(N2Cc3nc(=O)[nH]n3C2=O)cc1`, the cytotoxicity at 70.5 h worked out at 6.49%.
Consider `CCO[C@H]1CO[C@@]2(CCCN(Cc3nc(C)cs3)C2)C1`, for which the cytotoxicity at 70.5 h is -10.1%.
Under `Cc1oc2nc[nH]c(=O)c2c1C(=O)N1CCCC(n2cccn2)C1` (configuration not stated) stands -4.01%; under `Cc1nc(C2CCCN(C(=O)CCCn3cccn3)C2)sc1C` (configuration not stated), -15.3%.
Under `O=C(O)c1cc(S(=O)(=O)Nc2ccc(F)c(Cl)c2)cc2c1OCCO2` stands 3.36%; under `O=C(NCC(c1cccs1)N1CCOCC1)c1ccc(F)cc1Cl` (configuration not stated), -5.9%; under `CCn1nc(C)c2nnn(CC(=O)Nc3cccc(C)c3)c(=O)c21`, -10.1%.
Under `CCc1nc(C2CCCN2Cc2ccno2)no1` (configuration not stated) stands -14.3%; under `O[C@@H]1C[C@@](CNCc2ccc(Cl)cc2)(COc2cccnc2)C[C@@H]1O`, -10.2%; under `Cc1[nH]c(-c2ccccc2)nc1C(=O)N1CCC(O)(CO)CC1`, 17.9%.
On to `COc1cccc(OCC(=O)Nc2cc(C)cnc2OC)c1`, for which the cytotoxicity at 70.5 h is 2.85%.
For the compound `Cc1ccc(NC(=O)c2cc(S(=O)(=O)N3CCCCC3)c[nH]2)cc1F`, the cytotoxicity at 70.5 h was -8.62%.
Take `COC1CN(C(=O)CC(C)C)CCC(=O)N(C)c2ccccc21` (configuration not stated): the cytotoxicity at 70.5 h was -7.01%.
With `O=S(=O)(NC[C@H]1C[C@@H]2CCN1C[C@@H]2CN1CCOCC1)c1ccccc1`, the cytotoxicity at 70.5 h was -0.151%.
For `O=C(Cc1ccccc1Cl)NCCN1CCC(c2cccs2)CC1` the value was 1.31%; for `N#Cc1ccc(S(=O)(=O)NC(=O)COc2ccc3c(c2)CCC3)cc1`, -1.54%.
Under `CC(C)CN1CCC(NC(=O)c2ccc(F)cc2Cl)CC1` stands -2.96%; under `O=C(NCC1CCCOC1)c1ccc(-c2ccccc2)[nH]c1=O` (configuration not stated), 0.0722%.
As for `Cc1cnn(C2CCCN(C(=O)c3cc4nc(C)ccc4o3)C2)c1` (configuration not stated), the cytotoxicity at 70.5 h is -5.06%.
Take `N#Cc1ccc(N2CCC(c3nccn3Cc3cscn3)CC2)nc1`: the cytotoxicity at 70.5 h was -0.885%.
As to `Cc1cc(NC(=O)CN2CCn3c(C)nnc3C2)no1`, the cytotoxicity at 70.5 h was -7.43%.
Under `Cc1ccc(O[C@@H]2C[C@H]3CN(C(=O)Cc4ccccn4)CCN3C2)cc1` stands 17.9%; under `CNC(=O)C1CCCN(C(=O)NCCC2Cc3ccccc3C2)C1` (configuration not stated), -1.76%.
Turning to `CSCC(C)(O)CNS(=O)(=O)c1cccc(Cl)c1` (configuration not stated), the cytotoxicity at 70.5 h is -4.18%.
Regarding `Cn1cccc1C(=O)N1CCC2(CC1)CC(N1CCOCC1)C2`, the cytotoxicity at 70.5 h was -12.5%.

Values taken from ChEMBL document CHEMBL3507680, “University of Dundee, Gates Library screen for HepG2 cell viability”.
